Earlier results as cited in US9668986B2, “Ophthalmic, intra-articular or intravesical preparations containing N-acyl-ethanolamines” (EPITECH GROUP S.R.I., priority 2014, dated 2017).

What was measured:
[1] = molecular target: cannabinoid receptors CB1 (Homo sapiens, UniProt P21554)
[2] = molecular target: CB2 (Homo sapiens, UniProt P34972)
CB2, sequence (P34972 whole entry, species assumed): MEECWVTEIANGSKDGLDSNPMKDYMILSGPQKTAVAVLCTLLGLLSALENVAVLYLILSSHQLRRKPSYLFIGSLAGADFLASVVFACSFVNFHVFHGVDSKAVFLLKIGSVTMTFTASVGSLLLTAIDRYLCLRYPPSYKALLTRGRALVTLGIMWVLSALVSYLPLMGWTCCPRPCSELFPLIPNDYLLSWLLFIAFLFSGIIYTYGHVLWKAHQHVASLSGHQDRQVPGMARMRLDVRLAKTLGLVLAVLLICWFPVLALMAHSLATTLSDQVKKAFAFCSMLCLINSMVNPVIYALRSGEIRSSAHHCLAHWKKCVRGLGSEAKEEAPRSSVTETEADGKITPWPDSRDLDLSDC

cannabinoid receptors CB1, sequence (P21554 whole entry): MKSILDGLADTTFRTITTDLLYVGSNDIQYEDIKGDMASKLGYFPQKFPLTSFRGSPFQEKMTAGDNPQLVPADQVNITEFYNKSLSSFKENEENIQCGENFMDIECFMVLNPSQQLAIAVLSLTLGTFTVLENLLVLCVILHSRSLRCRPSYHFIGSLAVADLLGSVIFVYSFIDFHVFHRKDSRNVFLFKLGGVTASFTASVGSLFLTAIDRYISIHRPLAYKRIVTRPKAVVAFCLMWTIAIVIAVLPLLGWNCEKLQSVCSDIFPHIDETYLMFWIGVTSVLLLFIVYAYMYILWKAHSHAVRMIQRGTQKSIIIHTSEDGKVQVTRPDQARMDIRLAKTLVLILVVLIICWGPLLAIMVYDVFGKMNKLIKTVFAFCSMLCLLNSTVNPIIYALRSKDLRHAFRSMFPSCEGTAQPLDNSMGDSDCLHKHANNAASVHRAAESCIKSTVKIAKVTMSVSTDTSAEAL

## CCCCCCCCCCCCCCCC(=O)NCCO [PEA, N-palmitoylethanolamine]
other
  water solubility: not water-soluble
[1]
  affinity for CB1: poor affinity
[2]
  affinity for CB2: poor affinity
